According to US11242327B2, “Analgesic compounds” (RECURIUM IP HOLDINGS, LLC, priority 2017, dated 2022):

Key:
Format in all cases: in vivo
[1] = tested on: male Sprague-Dawley rats; test: UVB Inflammatory Pain Test (thermal hyperalgesia); conditions: rat, oral; for paw withdrawal latency, 1 h: 1 h after dosing; for paw withdrawal latency, 2 h: 2 h after dosing; for paw withdrawal latency, 4 h: 4 h after dosing
Method in brief: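 Left hind-paw plantar UVB (350 mJoules/cm^2) given on Day −3 to male Sprague-Dawley rats; on Day 0, test compounds dosed orally at 3, 10, 30 or 100 mg/kg, with water vehicle, celecoxib 30 mg/kg and acetaminophen 300 mg/kg. Radiant-heat paw withdrawal latency (mean of 3, 30 s cutoff) measured before dosing and about 1, 2 and 4 h after.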

[2] = tested on: male Sprague-Dawley rats; test: Formalin Paw Test, rat, oral; conditions: 30 mg/kg
Method in brief: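 Paw licking recorded every 5 min for 35 min after formalin injection, in groups of 8 non-fasted males: Sprague-Dawley rats (200–225 g) dosed orally or ICR mice (23±3 g) dosed intraperitoneally. Scores are licking-time bins: A <70 s, B 70–165 s, C >165 s.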

[3] = tested on: male Sprague-Dawley rats; test: Osteoarthritis Pain Test (MIA, mechanical hyperalgesia); conditions: rat; for joint compression threshold, Day 3, 1 h: Day 3, 1 h post-dosing; for joint compression threshold, Day 3, 2 h: Day 3, 2 h post-dosing; for joint compression threshold, Day 3, 4 h: Day 3, 4 h post-dosing; for joint compression threshold, Day 6, 1 h: Day 6, 1 h post-dosing; for joint compression threshold, Day 6, 2 h: Day 6, 2 h post-dosing; for joint compression threshold, Day 6, 4 h: Day 6, 4 h post-dosing; for joint compression threshold, Day 0, 1 h: Day 0, 1 h post-dosing; for joint compression threshold, Day 0, 2 h: Day 0, 2 h post-dosing; for joint compression threshold, Day 0, 4 h: Day 0, 4 h post-dosing
Procedure: Osteoarthritis pain was induced in non-fasted male Sprague-Dawley rats weighing 150-250 g by injecting 2 mg of monosodium iodoacetate (MIA) into the left knee joint. Mechanical hyperalgesia was measured using a digital Randall-Selitto device (dRS; IITC Life Sciences©; Woodland Hills, Calif.). Animals were allowed to acclimate to the testing room for a minimum of 15 minutes before testing. Animals were placed in a restraint sling that suspended the animal, leaving the hind limbs available for testing. The stimulus was applied to the knee joint by a blunt tip and pressure was applied gradually over approximately 10 seconds. Joint compression threshold values were recorded at the first observed nocifensive behavior (vocalization, struggle, or withdrawal). One reading per joint was taken at each time point, and a maximum stimulus cutoff of 500 grams was used to prevent injury to the animal. Mechanical hyperalgesia was assessed prior to MIA injection, and again 14 days later. After 14 days, test or control articles were administered once daily for 7 days with mechanical hyperalgesia assessed prior to dosing, 1, 2, and 4 hours post-dosing on days 0, 3, and 6. Test compounds were administered orally at concentrations of 3, 10, 30 or 100 mg/kg and celecoxib was administered orally at a concentration of 30 mg/kg. The control group received the vehicle (sterile water). After day 0, groups receiving the 100 mg/kg dose were reduced to a dose of 3 mg/kg. In Table 5, ‘A’ designates ≥375 grams of joint compression, ‘B’ designates ≥325 and <375 grams of joint compression, and ‘C’ designates <325 grams of joint compression.
The results provided in Table 5 are for oral administration in rats.

[4] = oral once daily, 3 mg/kg (group had 100 mg/kg on day 0)

## Cl.NC12CC(c3nc(C(F)(F)F)cs3)(C1)C2 [Compound 1, 3-(4-(Trifluoromethyl)thiazol-2-yl)bicyclo[1.1.1]pentan-1-amine hydrochloride]
[1]; 3 mg/kg
  paw withdrawal latency, 1 h: B (>6 and <8 seconds of paw withdrawal latency)
  paw withdrawal latency, 2 h: B (>6 and <8 seconds of paw withdrawal latency)
  paw withdrawal latency, 4 h: B (>6 and <8 seconds of paw withdrawal latency)
[1]; 10 mg/kg
  paw withdrawal latency, 1 h: B (>6 and <8 seconds of paw withdrawal latency)
  paw withdrawal latency, 2 h: B (>6 and <8 seconds of paw withdrawal latency)
  paw withdrawal latency, 4 h: B (>6 and <8 seconds of paw withdrawal latency)
[1]; 30 mg/kg
  paw withdrawal latency, 1 h: A (>8 seconds of paw withdrawal latency)
  paw withdrawal latency, 2 h: A (>8 seconds of paw withdrawal latency)
  paw withdrawal latency, 4 h: A (>8 seconds of paw withdrawal latency)
[1]; 100 mg/kg
  paw withdrawal latency, 1 h: A (>8 seconds of paw withdrawal latency)
  paw withdrawal latency, 2 h: A (>8 seconds of paw withdrawal latency)
  paw withdrawal latency, 4 h: A (>8 seconds of paw withdrawal latency)
[2]; early/acute phase (0-10 minutes)
  Early Phase, seconds of paw licking: A (<70 seconds of paw licking)
[2]; late/tonic phase (10-35 minutes)
  Late Phase, seconds of paw licking: B (>70 and <165 seconds of paw licking)
[3]; [4]
  joint compression threshold, Day 3, 1 h: A (≥375 grams of joint compression)
  joint compression threshold, Day 3, 2 h: A (≥375 grams of joint compression)
  joint compression threshold, Day 3, 4 h: A (≥375 grams of joint compression)
  joint compression threshold, Day 6, 1 h: A (≥375 grams of joint compression)
  joint compression threshold, Day 6, 2 h: B (≥325 and <375 grams of joint compression)
  joint compression threshold, Day 6, 4 h: A (≥375 grams of joint compression)
[3]; oral once daily, 10 mg/kg
  joint compression threshold, Day 0, 1 h: B (≥325 and <375 grams of joint compression)
  joint compression threshold, Day 0, 2 h: C (<325 grams of joint compression)
  joint compression threshold, Day 0, 4 h: C (<325 grams of joint compression)
  joint compression threshold, Day 3, 1 h: B (≥325 and <375 grams of joint compression)
  joint compression threshold, Day 3, 2 h: B (≥325 and <375 grams of joint compression)
  joint compression threshold, Day 3, 4 h: B (≥325 and <375 grams of joint compression)
  joint compression threshold, Day 6, 1 h: B (≥325 and <375 grams of joint compression)
  joint compression threshold, Day 6, 2 h: B (≥325 and <375 grams of joint compression)
  joint compression threshold, Day 6, 4 h: B (≥325 and <375 grams of joint compression)
[3]; oral once daily, 30 mg/kg
  joint compression threshold, Day 0, 1 h: B (≥325 and <375 grams of joint compression)
  joint compression threshold, Day 0, 2 h: B (≥325 and <375 grams of joint compression)
  joint compression threshold, Day 0, 4 h: B (≥325 and <375 grams of joint compression)
  joint compression threshold, Day 3, 1 h: A (≥375 grams of joint compression)
  joint compression threshold, Day 3, 2 h: A (≥375 grams of joint compression)
  joint compression threshold, Day 3, 4 h: B (≥325 and <375 grams of joint compression)
  joint compression threshold, Day 6, 1 h: A (≥375 grams of joint compression)
  joint compression threshold, Day 6, 2 h: B (≥325 and <375 grams of joint compression)
  joint compression threshold, Day 6, 4 h: B (≥325 and <375 grams of joint compression)
[3]; oral, 100 mg/kg
  joint compression threshold, Day 0, 1 h: A (≥375 grams of joint compression)
  joint compression threshold, Day 0, 2 h: A (≥375 grams of joint compression)
  joint compression threshold, Day 0, 4 h: A (≥375 grams of joint compression)
